Values of other authors in patent EP3272348A1, “PHARMACEUTICAL COMPOSITION COMPRISING IDELALISIB” (LEK Pharmaceuticals d.d., priority 2016, dated 2018).
Where two headings read alike, the source gives them in different places.

Tests used:
[1] = not given; remark: listed apart in the source

solubility (pH 1.2): soluble
solubility (pH 7): not soluble
permeability [1]: high permeability
Compound: CC[C@H](Nc1ncnc2[nH]cnc12)c1nc2cccc(F)c2c(=O)n1-c1ccccc1 [Crystalline idelalisib, (S)-2-(I-(9H-purin-6-ylamino)propyl)-5-fluoro-3-phenyl-quinazolin-4(3H)-one]
